# In patent US20150209327A1, “METHODS FOR THE TREATMENT OF OBESITY USING APREMILAST” (Celgene Corporation, priority 2014, published 2015):
# “And” between values parts separate entries of the source, which are not always exact repeats. Equal entries are not always repeated.
# Assays:
# TNF-α production = test: Inhibition of TNF-α production in a mouse model; type: in vivo
# Text: The test methods were as described in WO 03/080049; Muller et al., J. Med. Chem., 1996, 39:3238; and Muller et al., Bioorg. Med. Chem. Lett., 1999, 9:1625-30.
# [1] = tested on: Phosphodiesterase 4 enzyme; test: Inhibition of PDE4 (enzyme purified from U937 human monocytic cells); type: biochemical; conditions: 1 μM cAMP, 45 min at 30° C.
# Protocol: Inhibition of PDE4: Phosphodiesterase 4 enzyme was purified from U937 human monocytic cells by gel filtration chromatography, and phosphodiesterase reactions were carried out as previously described. See Muller et al., Bioorg. Med. Chem. Lett., 1998, 8(19): 2669-2674. Briefly, reactions were carried out in 96-well deep-well plates in 50 mM Tris HCl pH 7.5, 5 mM MgCl2, 1 μM cyclic adenosine monophosphate (cAMP), plus 10 nM [3H]-cAMP for 45 min at 30° C. The reactions were terminated by boiling, treated with 1 mg/ml snake venom, and separated using AG-1X8 ion exchange resin (BioRad). Reactions consumed less than 15% of available substrate.
# PDE1 = PDE1 enzyme assay; type: biochemical; conditions: at 10 μM
# Protocol: (§1) PDE1, 2, 3 and 5 enzyme assays were prepared as described by Hidaka and Asano. Biochem. Biophys. Acta., 1976, 429:485; see also Nicholsen et al., Trends Pharmaco. Sci., 1991, 12:19. The PDE6 enzyme assay was prepared according to Baehr et al., J. Biol. Chem., 1979, 254:11669 and Gillespie et al., Mol. Pharm., 1989, 36: 773. The PDE7 enzyme assay was prepared according to Bloom and Beavo. Proc. Natl. Acad. Sci. USA, 1996, 93:14188-92.
# PDE3 = PDE3 enzyme assay; type: biochemical; conditions: at 10 μM
# Protocol: as §1
# [2] = Psoriasis (PSOR) Phase 3 Data Pool: weight change; type: in vivo, human; conditions: 30 mg BID; for Weight % Change Category 0%, n (%) / Weight % Change Category <−20%, n (%) / Weight % Change Category >0% to ≦5%, n (%) / Weight % Change Category >5% to ≦10%, n (%) / Weight % Change Category >10% to ≦20%, n (%) / Weight % Change Category >20%, n (%) / Weight % Change Category ≧−5% to <0%, n (%) / Weight % Change Category ≧−10% to <−5%, n (%) / Weight % Change Category ≧−20% to <−10%, n (%): Subjects as Treated; for observed weight loss of greater than 10%, subjects n (%): subjects as treated
# Text: Apremilast has shown benefit of weight loss in both Phase 2 and Phase 3 Psoriatic Arthritis (PSA) and Psoriasis (PSOR) trials.
# [3] = Apremilast-exposure Period, m = 1133
# [4] = End of Period (APR, apremilast exposure), Subjects as Initially Treated at Week 0
# [5] = End of Period (PBC), Subjects as Initially Treated at Week 0
# [6] = End of Period (apremilast exposure), Apremilast Subjects as Treated
# [7] = Week 52, Apremilast Subjects as Treated
# [8] = Week 78, Apremilast Subjects as Treated
smiles,measurement,setting,value
"CCOc1cc([C@@H](CS(C)(=O)=O)N2C(=O)c3cccc(NC(C)=O)c3C2=O)ccc1OC [Apremilast, (+)-2-[1-(3-ethoxy-4-methoxyphenyl)-2-methylsulfonylethyl]-4-acetylaminoisoindoline-1,3-dione]","EC50, inhibition of TNF-α production in a mouse model",TNF-α production,0.05 mg/kg
same,IC50,[1],73.5 nM
same,% inhibition of PDE1,PDE1,23%
same,% inhibition of PDE3,PDE3,20%
same,"weight decrease reported, subjects n (%)",[2],18 (1.5%) n (%)
same,"Weight % Change Category 0%, n (%)",[2]; [3],72 (6.4) n (%)
same,"Weight % Change Category <−20%, n (%)",[2]; [3],9 (0.8) n (%)
same,"Weight % Change Category >0% to ≦5%, n (%)",[2]; [3],283 (25.0) n (%)
same,"Weight % Change Category >5% to ≦10%, n (%)",[2]; [3],61 (5.4) n (%)
same,"Weight % Change Category >10% to ≦20%, n (%)",[2]; [3],19 (1.7) n (%)
same,"Weight % Change Category >20%, n (%)",[2]; [3],1 (0.1) n (%)
same,"Weight % Change Category ≧−5% to <0%, n (%)",[2]; [3],470 (41.5) n (%)
same,"Weight % Change Category ≧−10% to <−5%, n (%)",[2]; [3],162 (14.3) n (%)
same,"Weight % Change Category ≧−20% to <−10%, n (%)",[2]; [3],56 (4.9) n (%)
same,"observed weight loss of greater than 10%, subjects n (%)",[2]; Apremilast-exposure Period,65(5.7%) n (%)
same,"Change From Baseline (kg) Median (Min, Max)",[2]; [4],"−1.00 (−39.4, 22.3) kg"
same,"Weight, kg End of Period Mean ± SD",[2]; [4],91.05 ± 21.694 kg
same,Change From Baseline (kg) Mean ± SD,"[2]; End of Period (APR, apremilast exposure), Subjects as Initially Treated at Week 0, listed as APR",-1.67 kg and -1.67 ± 5.437 kg
same,"Change From Baseline (kg) Median (Min, Max)",[2]; [5],"−1.00 (−34.9, 28.0) kg"
same,"Weight, kg End of Period Mean ± SD",[2]; [5],91.35 ± 21.673 kg
same,Change From Baseline (kg) Mean ± SD,"[2]; End of Period (PBC), Subjects as Initially Treated at Week 0, listed as APR",-1.45 kg and -1.45 ± 3.891 kg
same,Change From Baseline (kg) Mean ± SD,[2]; [6],-1.76 ± 5.344 kg
same,"Change From Baseline (kg) Median (Min, Max)",[2]; [6],"−1.10 (−39.4, 22.3) kg"
same,"Weight, kg Time Point Mean ± SD",[2]; [6],90.72 ± 21.669 kg
same,"Change From Baseline (kg) Median (Min, Max)",[2]; [7],"−1.40 (−39.0, 15.6) kg"
same,"Weight, kg Time Point Mean ± SD",[2]; [7],90.98 ± 22.291 kg
same,Change From Baseline (kg) Mean ± SD,"[2]; Week 52, Apremilast Subjects as Treated, listed as APR",-1.99 kg and -1.99 ± 5.640 kg
same,"Change From Baseline (kg) Median (Min, Max)",[2]; [8],"−2.30 (−28.0, 14.9) kg"
same,"Weight, kg Time Point Mean ± SD",[2]; [8],89.72 ± 22.231 kg
same,Change From Baseline (kg) Mean ± SD,"[2]; Week 78, Apremilast Subjects as Treated, listed as APR",-2.72 kg and -2.72 ± 5.792 kg
same,percentage of subjects with weight change of >−10% to <−5%,[2]; Weeks 0-16,11.7%
same,"Weight % Change Category 0%, n (%)","[2]; Weeks 0-16, m = 1127",108 (9.6) n (%)
same,"Weight % Change Category <−20%, n (%)","[2]; Weeks 0-16, m = 1127",2 (0.2) n (%)
same,"Weight % Change Category >0% to ≦5%, n (%)","[2]; Weeks 0-16, m = 1127",277 (24.6) n (%)
same,"Weight % Change Category >5% to ≦10%, n (%)","[2]; Weeks 0-16, m = 1127",24 (2.1) n (%)
same,"Weight % Change Category >10% to ≦20%, n (%)","[2]; Weeks 0-16, m = 1127",6 (0.5) n (%)
same,"Weight % Change Category >20%, n (%)","[2]; Weeks 0-16, m = 1127",1 (0.1) n (%)
same,"Weight % Change Category ≧−5% to <0%, n (%)","[2]; Weeks 0-16, m = 1127",557 (49.4) n (%)
same,"Weight % Change Category ≧−10% to <−5%, n (%)","[2]; Weeks 0-16, m = 1127",132 (11.7) n (%)
same,"Weight % Change Category ≧−20% to <−10%, n (%)","[2]; Weeks 0-16, m = 1127",20 (1.8) n (%)
same,"observed weight loss of greater than 10%, subjects n (%)",[2]; Weeks 0 to 16,22 (2.0%) n (%)
same,body weight of the majority of subjects,[2]; regardless of duration of exposure,maintained their body weight within 0% and 5% of baseline
